The subject of data set [1] is MDA-MB-231 (ER-negative) human breast cancer cell line. Briefly: MTT cell viability assay, MDA-MB-231 cells. The note with it: for anticancer activity in initial screening: 0.5-25 μM, 48 h (FIG. 3); for IC50: Homo sapiens.
Method: (§1) An MTT solution was added to each well and incubated for 3 h at 37° C. After 3 h, DMSO was added and the optical density was measured at 570 nm using a 96-well multiscanner (Dynex Technologies, MRX Revelation; Chantilly, Va., USA). Backgrounds were subtracted at 630 nm. IC50 values were calculated by non-linear regression analysis using Prism software.
(§2) The effects of novel triarylethylene derivatives on the cell viability were determined by the MTT uptake method using previously described methods (Kaur et al., 2014, Eur. J. Med. Chem. 86:211-218). Briefly, 3000 cells were incubated with various concentrations of compounds in triplicate in a 96-well plate for 72 h at 37° C. An MTT solution was added to each well and incubated for 3 h at 37° C. After 3 h, DMSO was added and the optical density was measured at 570 nm using a 96-well multiscanner (Dynex Technologies, MRX Revelation; Chantilly, Va., USA). Backgrounds were subtracted at 630 nm. IC50 values were calculated by non-linear regression analysis using Prism software.
Data set [2] concerns MCF-7 (ER-positive) human breast cancer cell line. Kind of data set: MTT cell viability assay, MCF-7 cells. The note with it: for anticancer activity in initial screening: 0.5-25 μM, 48 h (FIG. 3); for IC50: Homo sapiens. For orientation: Formazan colour is commonly taken as a measure of viable cells.
Method: as §1, §2
[3] abbreviates: MDA-MB-231, 48 h, read-out: MDA-MB-231 (ER− negative) IC50.
Setting [4] is: MDA-MB-231, 96 h, read-out: MDA-MB-231 (ER− negative) IC50.
[5] abbreviates: MCF7, 48 h, read-out: MCF-7 (ER positive) IC50.
Where [6] appears, read: MCF7, 96 h, read-out: MCF-7 (ER positive) IC50.
Where [7] appears, read: MDA-MB-231, 72 h, read-out: MDA-MB-231 IC50.
Setting [8] is: MCF7, 72 h, read-out: MCF-7 IC50.

Like-named read-outs stand apart in the source and are kept apart here.

In general, melting point refers to the temperature of the solid-liquid transition. As usually defined, the IC50 is the point on the concentration scale where inhibition reaches its midpoint.

`CS(=O)(=O)OCCOc1ccc(/C(=C(/CCCl)c2ccccc2)c2ccccc2)cc1` [Compound 2, (Z)-2-{4-(4-chloro-1,2-diphenylbut-1-enyl}phenoxy) ethyl methanesulfonate]: the melting point was in the range of 84 to 86 °C. In addition, the “anticancer activity in initial screening” value in data set [1] was “inactive”. In data set [2], the “anticancer activity in initial screening” value was “inactive”.
As to `[N-]=[N+]=NCCOc1ccc(/C(=C(/CCCl)c2ccccc2)c2ccccc2)cc1` [Compound 3, (Z)-[1-{4-(2-azidoethoxy)phenyl}-4-chlorobut-1-ene-1,2-diyl]dibenzene], the melting point lay within 88 to 90 °C. Also, the “anticancer activity in initial screening” value in data set [1] is “inactive”. In addition, the “anticancer activity in initial screening” value in data set [2] is “inactive”.
`[N-]=[N+]=NCC/C(=C(\c1ccccc1)c1ccc(OCCO)cc1)c1ccccc1` [Compound 4, (Z)-2-{4-(4-azido-1,2-diphenylbut-1-enyl)phenoxy}ethanol] had a melting point of 126 to 128 °C. Moreover, the concentration for half-maximal inhibition (IC50) in data set [1] (setting [3]) is greater than 100 µM. The IC50 in data set [1] (setting [4]) is greater than 100 µM. Further, in data set [2], the “anticancer activity in initial screening” value was “activity similar to Ospemifene”. The half-inhibitory concentration (IC50) in data set [2] (setting [5]) was greater than 100 µM. Besides, in data set [2] (setting [6]), the IC50 is greater than 100 µM.
Turning to `[N-]=[N+]=NCCOc1ccc(/C(=C(/CCN=[N+]=[N-])c2ccccc2)c2ccccc2)cc1` [Compound 5, (Z)-[4-azido-1-{4-(2-azidoethoxy)phenyl}but-1-ene-1,2-diyl]dibenzene], the “anticancer activity in initial screening” value in data set [1] and in data set [2] was “ineffective” throughout.
For `O=C(NCC/C(=C(\c1ccccc1)c1ccc(OCCO)cc1)c1ccccc1)Oc1ccccc1` [Compound 8, (Z)-Phenyl 4-{4-(2-hydroxyethoxy)phenyl}-3,4-diphenylbut-3-enylcarbamate], the melting point was 121 to 123 °C. For the same compound, in data set [1], the “anticancer activity in initial screening” value was “more potent than Ospemifene”. Further, the 50% inhibitory concentration (IC50) in data set [1] (setting [3]) is greater than 100 µM. In data set [1] (setting [4]), the IC50 worked out at 62.3 µM. The “anticancer activity in initial screening” value in data set [2] is given as “more potent than Ospemifene”. In addition, the IC50 in data set [2] (setting [5]) came out at 76 µM. Moreover, the half-inhibitory concentration (IC50) in data set [2] (setting [6]) amounted to 50 µM.
For `COc1ccc(/C(=C(/CCCl)c2ccccc2)c2ccccc2)cc1` [Compound 11, (Z)-(4-Chloro-1-(4-methoxyphenyl)but-1-ene-1,2-diyl)dibenzene], the melting point was in the range of 87 to 89 °C.
Turning to `COc1ccc(/C(=C(/CCN=[N+]=[N-])c2ccccc2)c2ccccc2)cc1` [Compound 12, (Z)-(4-Azido-1-(4-methoxyphenyl)but-1-ene-1,2-diyl)dibenzene], the melting point is 126 to 128 °C.
On to `CCOC(=O)C(=O)NCC/C(=C(\c1ccccc1)c1ccc(OC)cc1)c1ccccc1` [Compound 15, (Z)-Ethyl-2-(4-(4-methoxyphenyl)-3,4-diphenylbut-3-enylamino)-2-oxoacetate], for which the IC50 in data set [1] (setting [7]) and in data set [2] (setting [8]) was greater than 50 µM throughout.
Turning to `COc1ccc(/C(=C(/CCNC(=O)NCc2ccccc2)c2ccccc2)c2ccccc2)cc1` [Compound 16, (Z)-1-Benzyl-3-(4-(4-methoxyphenyl)-3,4-diphenylbut-3-enyl) urea], the melting point was 158 to 160 °C. In addition, in data set [1] (setting [7]), the IC50 is greater than 50 µM. Also, the IC50 in data set [2] (setting [8]) is greater than 50 µM.
The compound `COc1ccc(/C(=C(/CCNC(=O)NC2CCCCC2)c2ccccc2)c2ccccc2)cc1` [Compound 17, (Z)-1-Cyclohexyl-3-(4-(4-methoxyphenyl)-3,4-diphenylbut-3-enyl) urea] displayed a melting point of 168 to 170 °C. For the same compound, the IC50 in data set [1] (setting [7]) is greater than 50 µM. In data set [2] (setting [8]), the IC50 came to 37.2 ± 13.7 µM.
Taken in the same sequence, the figures for `COc1ccc(/C(=C(/CCNC(=O)N2CCOCC2)c2ccccc2)c2ccccc2)cc1` [Compound 18, (Z)—N-(4-(4-Methoxyphenyl)-3,4-diphenylbut-3-enyl)morpholine-4-carboxamide] were 139 to 141 °C, 42.8 ± 12.2 µM and greater than 50 µM.

The values are drawn from US20170217914A1, “Novel Triarylethylene Compounds and Methods Using Same” (The Penn State Research Foundation, priority 2014, published 2017).
